Laboratory results: ChEMBL document CHEMBL3877269, “Structure-activity relationships and optimization of acyclic acylphloroglucinol analogues as novel antimicrobial agents” (Eur J Med Chem, 2017)
In brackets after ≈: the same amount, converted by molar mass. Activity calls are given as the source filed them. The calls are words filed in the database; no cut-off is given here.

Assays:
[1] = system: Staphylococcus aureus; experiment: Antibacterial activity against drug-susceptible Staphylococcus aureus ATCC 6538 after 8 to 12 hrs by resazurin dye based microdilution method; assay type: functional
[2] = system: Staphylococcus aureus; experiment: Antibacterial activity against methicillin-resistant Staphylococcus aureus JCSC 2172 after 8 to 12 hrs by resazurin dye based microdilution method; assay type: functional
[3] = system: Staphylococcus aureus; experiment: Disruption of cytoplasmic membrane potential in methicillin-resistant Staphylococcus aureus JCSC 2172 at 10 ug/ml after 4 hrs by SYTOX green dye based fluorescence assay; assay type: functional
[4] = system: Staphylococcus aureus; experiment: Bactericidal activity against methicillin-resistant Staphylococcus aureus JCSC 2172 assessed as 3-log reduction in bacterial colony at 4 times MIC up to 4 hrs by time-kill assay; assay type: functional
[5] = system: Bacillus thuringiensis; experiment: Antibacterial activity against Bacillus thuringiensis ATCC 10792 after 8 to 12 hrs by resazurin dye based microdilution method; assay type: functional
[6] = Selectivity ratio of IC50 for mouse RAW264.7 cells to MIC for methicillin-resistant Staphylococcus aureus JCSC 2172; assay type: ADME
[7] = system: Staphylococcus aureus; experiment: Bactericidal activity against methicillin-resistant Staphylococcus aureus JCSC 2172 assessed as reduction in CFU count at 4 times MIC after 24 hrs by time-kill assay; assay type: functional; design: scale not given: the % may be the effect or the level left
[8] = system: Staphylococcus aureus; experiment: Bactericidal activity against methicillin-resistant Staphylococcus aureus JCSC 2172 assessed induction of membrane potential dissipation at 0.5 to 8 times MIC by DiSC3-5 probe based fluorescence assay; assay type: functional
[9] = system: Staphylococcus aureus; experiment: Potency index, ratio of vancomycin MIC to compound MIC for methicillin-resistant Staphylococcus aureus JCSC 2172; assay type: functional
[10] = system: Bacillus cereus; experiment: Antibacterial activity against Bacillus cereus ATCC 10876 after 8 to 12 hrs by resazurin dye based microdilution method; assay type: functional
[11] = system: Bacillus subtilis; experiment: Antibacterial activity against Bacillus subtilis ATCC 11774 after 8 to 12 hrs by resazurin dye based microdilution method; assay type: functional
[12] = system: Staphylococcus aureus; experiment: Bacteriostatic activity against methicillin-resistant Staphylococcus aureus JCSC 2172 at 0.5 to 2 times MIC up to 10 hrs by time-kill assay; assay type: functional
[13] = system: Staphylococcus aureus; experiment: Induction of cell lysis in methicillin-resistant Staphylococcus aureus JCSC 2172 at 8 times MIC after 4 hrs by osmium tetroxide staining based scanning electron microscopic method; assay type: functional
[14] = system: Escherichia coli; experiment: Antibacterial activity against Escherichia coli ATCC 8739 after 8 to 12 hrs by resazurin dye based microdilution method; assay type: functional
[15] = system: Staphylococcus aureus; experiment: Disruption of cytoplasmic membrane potential in methicillin-resistant Staphylococcus aureus JCSC 2172 at 8 times MIC after 4 hrs by SYTOX green dye based fluorescence assay; assay type: functional
[16] = Cytotoxicity against mouse RAW264.7 cells assessed as reduction in cell viability after 24 hrs by MTT assay; assay type: toxicity
[17] = system: Staphylococcus aureus; experiment: Bactericidal activity against methicillin-resistant Staphylococcus aureus JCSC 2172 assessed as 3-log reduction in bacterial colony at 4 times MIC after 10 hrs by time-kill assay; assay type: functional
[18] = Solubility of the compound in DMSO; assay type: physicochemical

SMILES | MIC [1] [µg/mL] | MIC [2] [µg/mL] | MIC [5] [µg/mL] | selectivity ratio [6] | MIC [10] [µg/mL] | MIC [11] [µg/mL] | MIC [14] [µg/mL] | IC50 at 24 h [16] [µg/mL] | also measured
CC(=O)c1c(O)cc(O)c([C@@H](CC(C)C)C2=C(O)C(C)(C)C(=O)C(C)(C)C2=O)c1O | 4 (≈ 9.56 µM) | 4 (≈ 9.56 µM) |  |  |  |  |  |  | 
CC(C)CC(=O)c1c(O)cc(O)c([C@@H](CC(C)C)C2=C(O)C(C)(C)C(=O)C(C)(C)C2=O)c1O | 8 (≈ 17.4 µM) | 8 (≈ 17.4 µM) |  |  |  |  |  |  | 
CC[C@H](C)[C@H](NC(=O)CN)C(=O)NCC(=O)N[C@@H](C)C(=O)N[C@H](C(=O)N[C@@H](CC(C)C)C(=O)N[C@@H](CCCCN)C(=O)N[C@H](C(=O)N[C@@H](CC(C)C)C(=O)N[C@H](C(=O)N[C@H](C(=O)NCC(=O)N[C@@H](CC(C)C)C(=O)N1CCC[C@H]1C(=O)N[C@@H](C)C(=O)N[C@@H](CC(C)C)C(=O)N[C@H](C(=O)N[C@@H](CO)C(=O)N[C@@H](Cc1c[nH]c2ccccc12)C(=O)N[C@H](C(=O)N[C@@H](CCCCN)C(=O)N[C@@H](CCCNC(=N)N)C(=O)N[C@@H](CCCCN)C(=O)N[C@@H](CCCNC(=N)N)C(=O)N[C@@H](CCC(N)=O)C(=O)N[C@@H](CCC(N)=O)C(N)=O)[C@@H](C)CC)[C@@H](C)CC)[C@@H](C)O)[C@@H](C)O)C(C)C)C(C)C |  |  |  |  |  |  |  |  | Activity [3]: Active
CCCCCCCC(=O)c1c(O)cc(O)c([C@@H](CC(C)C)C2=C(O)C(C)(C)C(=O)C(C)(C)C2=O)c1O | 0.25 (≈ 0.497 µM) | 0.25 (≈ 0.497 µM) | 0.25 (≈ 0.497 µM) | 20.4 | 0.25 (≈ 0.497 µM) | 0.13 (≈ 0.259 µM) | > 32 | 5.1 (≈ 10.1 µM) | Activity [4]: Active; Activity [7]: 99.99%; Activity [8]: Active; Ratio [9]: 4; Activity [12]: >90%; Activity [13]: Active; Activity [15]: Active
CCCC(=O)c1c(O)cc(O)c([C@@H](CC(C)C)C2=C(O)C(C)(C)C(=O)C(C)(C)C2=O)c1O | 32 (≈ 71.7 µM) | 32 (≈ 71.7 µM) |  |  |  |  |  |  | 
CCCCCCC(=O)c1c(O)cc(O)c([C@@H](CC(C)C)C2=C(O)C(C)(C)C(=O)C(C)(C)C2=O)c1O | 0.5 (≈ 1.02 µM) | 0.5 (≈ 1.02 µM) | 0.5 (≈ 1.02 µM) | 16.7 | 0.5 (≈ 1.02 µM) | 0.25 (≈ 0.512 µM) | > 32 | 8.8 (≈ 18 µM) | 
CN[C@H](CC(C)C)C(=O)N[C@H]1C(=O)N[C@@H](CC(N)=O)C(=O)N[C@H]2C(=O)N[C@H]3C(=O)N[C@H](C(=O)N[C@H](C(=O)O)c4cc(O)cc(O)c4-c4cc3ccc4O)[C@H](O)c3ccc(c(Cl)c3)Oc3cc2cc(c3O[C@@H]2O[C@H](CO)[C@@H](O)[C@H](O)[C@H]2O[C@H]2C[C@](C)(N)[C@H](O)[C@H](C)O2)Oc2ccc(cc2Cl)[C@H]1O [VANCOMYCIN] |  |  | 1 (≈ 0.69 µM) |  | 0.25 (≈ 0.173 µM) | 0.13 (≈ 0.0897 µM) | > 32 |  | Activity [17]: Active
CC(C)C[C@@H](C1=C(O)C(C)(C)C(=O)C(C)(C)C1=O)c1c(O)cc(O)c(C=O)c1O | > 32 | > 32 |  |  |  |  |  |  | 
CC(C)C[C@@H](C1=C(O)C(C)(C)C(=O)C(C)(C)C1=O)c1c(O)cc(O)c(C(=O)C2CCCC2)c1O | 32 (≈ 67.7 µM) | > 32 |  |  |  |  |  |  | 
CCCCCCCCCC(=O)c1c(O)cc(O)c([C@@H](CC(C)C)C2=C(O)C(C)(C)C(=O)C(C)(C)C2=O)c1O | 0.25 (≈ 0.471 µM) | 0.25 (≈ 0.471 µM) | 0.5 (≈ 0.942 µM) | 20.4 | 1 (≈ 1.88 µM) | 0.25 (≈ 0.471 µM) | > 32 | 5.1 (≈ 9.61 µM) | 
CCCCC(=O)c1c(O)cc(O)c([C@@H](CC(C)C)C2=C(O)C(C)(C)C(=O)C(C)(C)C2=O)c1O | 4 (≈ 8.68 µM) | 8 (≈ 17.4 µM) |  |  |  |  |  |  | 
CC(C)C[C@@H](C1=C(O)C(C)(C)C(=O)C(C)(C)C1=O)c1c(O)cc(O)c(C(=O)C(C)C)c1O | 16 (≈ 35.8 µM) | 16 (≈ 35.8 µM) |  |  |  |  |  |  | 
CCCCCCCCC(=O)c1c(O)cc(O)c([C@@H](CC(C)C)C2=C(O)C(C)(C)C(=O)C(C)(C)C2=O)c1O | 0.25 (≈ 0.484 µM) | 0.5 (≈ 0.968 µM) | 0.5 (≈ 0.968 µM) | 16.4 | 0.5 (≈ 0.968 µM) | 0.25 (≈ 0.484 µM) | > 32 | 8.2 (≈ 15.9 µM) | 
CCCCCCCCCCC(=O)c1c(O)cc(O)c([C@@H](CC(C)C)C2=C(O)C(C)(C)C(=O)C(C)(C)C2=O)c1O | 0.25 (≈ 0.459 µM) | 0.5 (≈ 0.918 µM) | 0.25 (≈ 0.459 µM) | 22.2 | 0.5 (≈ 0.918 µM) | 0.25 (≈ 0.459 µM) | > 32 | 11.1 (≈ 20.4 µM) | 
CC(C)C[C@@H](C1=C(O)C(C)(C)C(=O)C(C)(C)C1=O)c1c(O)cc(O)c(C(=O)CCc2ccccc2)c1O | 4 (≈ 7.86 µM) | 8 (≈ 15.7 µM) |  |  |  |  |  |  | 
CCCCCC(=O)c1c(O)cc(O)c([C@@H](CC(C)C)C2=C(O)C(C)(C)C(=O)C(C)(C)C2=O)c1O | 2 (≈ 4.21 µM) | 2 (≈ 4.21 µM) |  |  |  |  |  |  | 
CCCCCCCCCCCCCC(=O)c1c(O)cc(O)c([C@@H](CC(C)C)C2=C(O)C(C)(C)C(=O)C(C)(C)C2=O)c1O | 0.5 (≈ 0.852 µM) | 1 (≈ 1.7 µM) | 2 (≈ 3.41 µM) | 13.1 | 4 (≈ 6.82 µM) | 8 (≈ 13.6 µM) | > 32 | 13.1 (≈ 22.3 µM) | solubility [18]: Insoluble
CC(C)C[C@@H](C1=C(O)C(C)(C)C(=O)C(C)(C)C1=O)c1c(O)cc(O)c(C(=O)Cc2ccccc2)c1O | 16 (≈ 32.4 µM) | 16 (≈ 32.4 µM) |  |  |  |  |  |  | 
CC(C)C[C@@H](C1=C(O)C(C)(C)C(=O)C(C)(C)C1=O)c1c(O)cc(O)c(C(=O)C2CCC2)c1O | 16 (≈ 34.9 µM) | 16 (≈ 34.9 µM) |  |  |  |  |  |  | 
CC(C)C[C@@H](C1=C(O)C(C)(C)C(=O)C(C)(C)C1=O)c1c(O)cc(O)c(C(=O)C2CCCCC2)c1O | 4 (≈ 8.22 µM) | 4 (≈ 8.22 µM) |  |  |  |  |  |  | 
CCCCCCCCCCCCCCCC(=O)c1c(O)cc(O)c([C@@H](CC(C)C)C2=C(O)C(C)(C)C(=O)C(C)(C)C2=O)c1O | 1 (≈ 1.63 µM) | 1 to 2 (≈ 1.63 to 3.25 µM) | 2 (≈ 3.25 µM) | 17.5 | 8 (≈ 13 µM) | 16 (≈ 26 µM) | > 32 | 17.5 (≈ 28.5 µM) | solubility [18]: Insoluble
CCC(=O)c1c(O)cc(O)c([C@@H](CC(C)C)C2=C(O)C(C)(C)C(=O)C(C)(C)C2=O)c1O | 8 (≈ 18.5 µM) | 8 (≈ 18.5 µM) |  |  |  |  |  |  | 
CCCCCCCCCCCC(=O)c1c(O)cc(O)c([C@@H](CC(C)C)C2=C(O)C(C)(C)C(=O)C(C)(C)C2=O)c1O | 0.5 (≈ 0.895 µM) | 0.5 (≈ 0.895 µM) | 0.5 (≈ 0.895 µM) | 15.8 | 1 (≈ 1.79 µM) | 0.25 (≈ 0.447 µM) | > 32 | 7.9 (≈ 14.1 µM) | 
